Reference: DBAASP
In brackets after ≈: the same amount, converted by molar mass. Blank lines part the entries; values can stand above or below the molecule they belong to.

Legend:
Experiment in all cases: ≥ marks a high value that may be exact or a test limit, other limits are often not marked, values filed in µg/mL are converted to µM
Enterococcus faecium VR = tested on: Enterococcus faecium VR
Enterococcus faecium = tested on: Enterococcus faecium
[1] = tested on: Salmonella typhimurium KCTC 1926
Enterococcus faecalis = tested on: Enterococcus faecalis
[2] = tested on: Pseudomonas aeruginosa KCTC 1637
[3] = tested on: Bacillus subtilis KCTC 3068
[4] = tested on: Escherichia coli KCTC 1682
Enterococcus faecalis VR = tested on: Enterococcus faecalis VR
[5] = tested on: Staphylococcus aureus KCTC 1621
[6] = tested on: Staphylococcus epidermidis KCTC 1917
Staphylococcus aureus MR = tested on: Staphylococcus aureus MR
[7] = tested on: Escherichia coli CICC 10293
[8] = tested on: Trichophyton mentagrophytes
[9] = tested on: Enterobacter cloacae CICC 21539
[10] = tested on: Staphylococcus aureus CICC 10306
[11] = tested on: Serratia marcescens ATCC 4112
[12] = tested on: Listeria innocua CICC 10417
[13] = tested on: Aspergillus niger CICC 2124
[14] = tested on: Staphylococcus pseudintermedius
[15] = tested on: Saccharomyces cerevisiae CICC 1002
[16] = tested on: Microsporum canis MW768151
Staphylococcus simulans = tested on: Staphylococcus simulans
[17] = tested on: Pseudomonas aeruginosa CICC 21636
[18] = tested on: Staphylococcus pseudintermedius MW767056
[19] = tested on: Bacillus subtilis CICC 10034
Microsporum canis = tested on: Microsporum canis
[20] = tested on: Salmonella enterica subsp. enterica serovar Paratyphi B CICC 10437
[21] = tested on: Staphylococcus cohnii MW767053
[22] = tested on: Staphylococcus haemolyticus
Staphylococcus sciuri = tested on: Staphylococcus sciuri
[23] = tested on: Staphylococcus aureus CICC 10384
[24] = tested on: Candida albicans CICC 1965
Proteus mirabilis = tested on: Proteus mirabilis
[25] = tested on: Pseudomonas aeruginosa ATCC 27853
[26] = tested on: Pseudomonas aeruginosa Q14-0208
[27] = tested on: Campylobacter jejuni NCTC 11351
[28] = tested on: Staphylococcus aureus ATCC 29213
[29] = tested on: Acinetobacter baumannii Q12-0809
[30] = tested on: Klebsiella pneumoniae Q14-0095
[31] = tested on: Klebsiella pneumoniae NCTC 13442
[32] = tested on: Klebsiella pneumoniae ATCC 700603
Escherichia coli = tested on: Escherichia coli
[33] = tested on: Staphylococcus aureus NCTC 12493
[34] = tested on: Acinetobacter baumannii Q13-0717
[35] = tested on: Staphylococcus aureus Q14-0320
Pseudomonas aeruginosa = tested on: Pseudomonas aeruginosa
[36] = tested on: Vibrio anguillarum ATCC 43305
[37] = tested on: Acinetobacter baumannii ATCC 19606
[38] = tested on: Bacillus subtilis ATCC 6051
[39] = tested on: Staphylococcus aureus ATCC 25923
[40] = tested on: Escherichia coli ATCC 25922
Bacillus cereus C737 = tested on: Bacillus cereus C737
[41] = tested on: Pseudomonas aeruginosa PAO1
Escherichia coli UB1005 = tested on: Escherichia coli UB1005

SMILES: CC(C)C[C@H](NC(=O)[C@H](CO)NC(=O)[C@H](CC(C)C)NC(=O)[C@H](CS)NC(=O)[C@H](CC(N)=O)NC(=O)[C@H](C)NC(=O)[C@H](C)N)C(=O)NCC(=O)N[C@@H](CCCCN)C(=O)N[C@@H](C)C(N)=O [AANCLSLGKA]
MIC (Enterococcus faecium VR): 30 µM (≈ 28.4 µg/mL) | MIC (Enterococcus faecium): 30 µM (≈ 28.4 µg/mL) | MIC [1]: 30 µM (≈ 28.4 µg/mL) | MIC (Enterococcus faecalis): 30 µM (≈ 28.4 µg/mL) | MIC [2]: 30 µM (≈ 28.4 µg/mL) | MIC [3]: 30 µM (≈ 28.4 µg/mL) | MIC [4]: 30 µM (≈ 28.4 µg/mL) | MIC (Enterococcus faecalis VR): 30 µM (≈ 28.4 µg/mL) | MIC [5]: 30 µM (≈ 28.4 µg/mL) | MIC [6]: 30 µM (≈ 28.4 µg/mL) | MIC (Staphylococcus aureus MR): 30 µM (≈ 28.4 µg/mL)

SMILES: CC[C@H](C)[C@H](NC(=O)[C@@H](NC(=O)[C@H](CO)NC(=O)[C@H](Cc1ccccc1)NC(=O)[C@H](CC(C)C)NC(=O)[C@H](CCCN=C(N)N)NC(=O)[C@@H](NC(=O)[C@H](CC(C)C)NC(=O)CN)[C@@H](C)O)C(C)C)C(=O)N[C@@H](CCCCN)C(=O)O [GLTRLFSVIK]
MIC [7]: 14.1 µM (≈ 16 µg/mL) | MIC [8]: 0.882 µM (≈ 1 µg/mL) | MIC [9]: 14.1 µM (≈ 16 µg/mL) | MIC [10]: 14.1 µM (≈ 16 µg/mL) | MIC [11]: 7.06 µM (≈ 8 µg/mL) | MIC [12]: 28.2 µM (≈ 32 µg/mL) | MIC [13]: ≥ 56.5 µM | MIC [14]: ≥ 56.5 µM | MIC [15]: ≥ 56.5 µM | MIC [16]: 0.882 µM (≈ 1 µg/mL) | MIC (Staphylococcus simulans): ≥ 226 µM | MIC [17]: 7.06 µM (≈ 8 µg/mL) | MIC [18]: 28.2 µM (≈ 32 µg/mL) | MIC [19]: 28.2 µM (≈ 32 µg/mL) | MIC (Microsporum canis): 0.624 µM (≈ 0.707 µg/mL) | MIC [20]: 28.2 µM (≈ 32 µg/mL) | MIC [21]: ≥ 56.5 µM | MIC [22]: ≥ 226 µM | MIC (Staphylococcus sciuri): ≥ 226 µM | MIC [23]: 14.1 µM (≈ 16 µg/mL) | MIC [24]: 28.2 µM (≈ 32 µg/mL) | MIC (Proteus mirabilis): ≥ 226 µM

SMILES: CC[C@H](C)[C@H](NC(=O)[C@H](CC(=O)O)NC(=O)[C@H](Cc1ccccc1)NC(=O)[C@H](CC(C)C)NC(=O)CN)C(=O)N[C@H](C(=O)N[C@@H](CCCCN)C(=O)N[C@@H](CCCCN)C(=O)N[C@H](C(=O)N[C@H](C(=O)NCC(=O)N[C@@H](C)C(=O)N[C@H](C(=O)NCC(=O)N[C@@H](CO)C(=O)N[C@@H](CC(C)C)C(N)=O)C(C)C)C(C)C)C(C)C)C(C)C [GLFDIVKKVVGAVGSL]
MIC (Bacillus cereus C737): ≥ 79.9 µM | MIC [41]: > 79.9 µM | MIC (Escherichia coli UB1005): ≥ 40 µM

The remaining lines, values ahead:

MIC [25]: 82.8 µM (≈ 128 µg/mL) | MIC [26]: ≥ 82.8 µM | MIC [27]: ≥ 82.8 µM | MIC [28]: > 82.8 µM | MIC [29]: ≥ 82.8 µM | MIC [30]: ≥ 82.8 µM | MIC [31]: ≥ 82.8 µM | MIC [32]: > 82.8 µM | MIC (Escherichia coli): 82.8 µM (≈ 128 µg/mL) | MIC [33]: ≥ 82.8 µM | MIC [34]: ≥ 82.8 µM | MIC [35]: ≥ 82.8 µM | MIC (Pseudomonas aeruginosa): > 331 µM
SMILES: C[C@H](NC(=O)[C@H](CCCN=C(N)N)NC(=O)[C@H](Cc1ccc(O)cc1)NC(=O)[C@H](Cc1cnc[nH]1)NC(=O)[C@H](Cc1c[nH]c2ccccc12)NC(=O)[C@H](CCCN=C(N)N)NC(=O)[C@H](Cc1c[nH]c2ccccc12)NC(=O)[C@H](C)NC(=O)[C@@H](NC(=O)CN)[C@@H](C)O)C(=O)N[C@@H](CCCN=C(N)N)C(=O)N[C@@H](CO)C(=O)O [GTAWRWHYRARS]

MIC [25]: > 32 µM | MIC [36]: ≥ 32 µM | MIC [37]: 8 µM (≈ 22.9 µg/mL) | MIC [38]: ≥ 32 µM | MIC [39]: > 32 µM | MIC [40]: 11.3 µM (≈ 32.4 µg/mL)
SMILES: CC(C)C[C@H](N)C(=O)N[C@@H](CCCN=C(N)N)C(=O)N[C@@H](Cc1c[nH]c2ccccc12)C(=O)N[C@H](C(=O)N1CCC[C@H]1C(=O)N[C@H](C(=O)N1CCC[C@H]1C(=O)N[C@@H](CO)C(=O)N[C@@H](Cc1ccc(O)cc1)C(=O)N1CCC[C@H]1C(=O)N[C@@H](CCCN=C(N)N)C(=O)N[C@@H](Cc1ccc(O)cc1)C(=O)N1CCC[C@H]1C(=O)N[C@H](C(=O)N[C@@H](CCCN=C(N)N)C(=O)N[C@@H](CO)C(=O)N[C@@H](CCCN=C(N)N)C(=O)NCC(=O)N[C@@H](CO)C(=O)N[C@@H](CCCN=C(N)N)C(=O)N[C@@H](Cc1c[nH]c2ccccc12)C(=O)N[C@@H](CO)C(=O)N[C@@H](CCCN=C(N)N)C(N)=O)[C@@H](C)O)[C@@H](C)O)[C@@H](C)O [LRWTPTPSYPRYPTRSRGSRWSR]
